The source of these data is paper PMC6424996, “Effect of peptide-conjugated nanoparticles on cell lines” (Progress in Biomaterials, 2019).

Where “and” joins values, the source holds several entries; their conditions need not be identical. Equal values may be shown once. Where a SMILES comes first, the peptide text is derived from it.

Common to all, as to format: cell-based
The subject of series [1] is HT-29 (Colon carcinoma) cells. In words: Screening of cytotoxic activity of peptides by MTT assay on HT-29 cells. Particulars: for % inhibition (peptide screening): HT-29 cancerous cells, MTT, Fig. 1. In general terms: Tetrazolium assays rely on reduction of a dye to a coloured formazan, in cell work by metabolically active cells.
Protocol: Different concentrations of the peptides (1 μL, 3 μL, 5 L, 10 μL, 20 μL) were used to treat the cancerous and normal cells consecutively (Inkielewicz-Stepniak et al. [2014]). The percentage inhibition was calculated.
In series [2] the test system is NIH3T3 (Mouse embryo fibroblast) cells. In words: Cytotoxicity on normal NIH3T3 cells (MTT assay). How it is done:
Above-mentioned peptides (P1, P2, P3, P4, and P5) obtained from other sources were screened for cytotoxicity by MTT assay on NIH3T3 (Mouse embryo fibroblast) cells (normal) and HT-29 (Colon carcinoma) cells (cancerous) by MTT assay. Different concentrations of the peptides (1 μL, 3 μL, […], 10 μL, 20 μL) were used to treat the cancerous and normal cells consecutively (Inkielewicz-Stepniak et al. [2014]). The percentage inhibition was calculated.

Series [3] has as its system HT-29 (Colon carcinoma) cells. Kind of series: MTT assay of nanoparticles, P1 and conjugates on HT-29. Particulars: 24 h exposure, 5000 cells/well, 570 nm, triplicates. Here is the method: Cell lines were acquired from NCCS—National Centre for Cell Science, Pune, India. The HT-29 (Colon carcinoma) and MDA MB-231 (Breast cancer) cells were plated into 25-mm^2 T-flasks after thawing them at 37 °C in a water bath for few minutes. The thawed cells were transferred in a centrifuge tube and centrifuged for 3 min at 2000 rpm/min. The cells were, thus, collected discarding the supernatant and mixed well in Dulbecco’s modified Eagle’s medium (DMEM) solution with 12% fetal bovine serum, and antibiotics (streptopenicillin and amphotericin B solution, Sigma). Later, they were plated in 25 mm^2 in the same DMEM solution, individually. The T-flasks containing the cells were incubated for 24 h in humidified environment with 5% CO2. These cells after 24 h were washed with phosphate buffer saline (PBS). The medium was regularly changed for the cells to reach 50% confluence (Hajiaghaalipour et al [2015]). To check the viability of cells, MTT assay was carried out and 96-well plates were used to seed the cell lines of interest at 5000 cells/well and incubated overnight at 37 °C in an incubator with 5% CO2. After incubation, the cells were treated with different concentrations (1, 5, 10 μg/mL) of P1, AgNPs, AuNPs, P1–AgNP and P1–AuNP conjugates. The plates along with the treated cells were again incubated for 24 h at the same condition. […] The measurement of MTT assay was analyzed with Elisa Reader (Thermo Scientific, Multiskan Spectrum) at 570 nm (Inkielewicz-Stepniak et al [2014]). Percentage inhibition of cells was calculated according to the following equation: Cytotoxicity(%)=(experimentalabsorbance570nmofexposedcells/absorbance570nmofunexposedcells)×100.
All experiments were done in triplicates and the results were represented as mean ± SEM. The experimental data were read by two-way analysis of variance (ANNOVA). […] The IC-50 value was calculated using Microsoft Excel 2007 software (logarithmic transformation of X values and nonlinear regression sigmoidal dose–response analysis with variable slope—with bottom and top constraints set at 0 and 100, resp.).

The subject of series [4] is MDA MB-231 (Breast cancer) cells. Kind of series: MTT assay of nanoparticles, P1 and conjugates on MDA MB-231. Particulars: for % inhibition: MTT, 24 h exposure, 5000 cells/well, 570 nm, triplicates. How it is done: Cell lines were acquired from NCCS—National Centre for Cell Science, Pune, India. The HT-29 (Colon carcinoma) and MDA MB-231 (Breast cancer) cells were plated into 25-mm^2 T-flasks after thawing them at 37 °C in a water bath for few minutes. The thawed cells were transferred in a centrifuge tube and centrifuged for 3 min at 2000 rpm/min. The cells were, thus, collected discarding the supernatant and mixed well in Dulbecco’s modified Eagle’s medium (DMEM) solution with 12% fetal bovine serum, and antibiotics (streptopenicillin and amphotericin B solution, Sigma). Later, they were plated in 25 mm^2 in the same DMEM solution, individually. The T-flasks containing the cells were incubated for 24 h in humidified environment with 5% CO2. These cells after 24 h were washed with phosphate buffer saline (PBS). The medium was regularly changed for the cells to reach 50% confluence (Hajiaghaalipour et al [2015]). To check the viability of cells, MTT assay was carried out and 96-well plates were used to seed the cell lines of interest at 5000 cells/well and incubated overnight at 37 °C in an incubator with 5% CO2. After incubation, the cells were treated with different concentrations (1, 5, 10 μg/mL) of P1, AgNPs, AuNPs, P1–AgNP and P1–AuNP conjugates. The plates along with the treated cells were again incubated for 24 h at the same condition. The stored stock of MTT solution was added to the control and treated cell line samples, and again incubated at 37 °C for 2–3 h. After incubation, the media were carefully removed from the wells and mixed with solubilizing buffer. A purple color solution was visible at this stage. The control solution (without incorporation of nanoparticles/pure incubated cells) and treated samples were again incubated for an hour at 37 °C to ensure that the formazan precipitate was dissolved. The measurement of MTT assay was analyzed with Elisa Reader (Thermo Scientific, Multiskan Spectrum) at 570 nm (Inkielewicz-Stepniak et al [2014]). Percentage inhibition of cells was calculated according to the following equation: Cytotoxicity(%)=(experimentalabsorbance570nmofexposedcells/absorbance570nmofunexposedcells)×100.
All experiments were done in triplicates and the results were represented as mean ± SEM. The experimental data were read by two-way analysis of variance (ANNOVA). Differences were considered significant at p < 0.05. The IC-50 value was calculated using Microsoft Excel 2007 software (logarithmic transformation of X values and nonlinear regression sigmoidal dose–response analysis with variable slope—with bottom and top constraints set at 0 and 100, resp.).

The subject of series [5] is HT-29 cells. In words: PI/AO staining for dead/live cells, HT-29. The settings on record: HT-29, 1 µg/mL, 24 h, Figs. 6, 8. Here is the method: (§1) HT-29 and MDA MB-231 cells were plated at a density of 1 × 10^6 cells/mL in 6-well tissue culture plates. They were treated with 1 µg/mL each of AgNP, AuNP, P1, P1–AgNP and P1–AuNP conjugated samples and were incubated in at 37 °C in 5% CO2 for 24 h. The cells were then harvested and washed twice using PBS after centrifugation at 2000 rpm for 5 min. An equal volume (10 µg/mL) of fluorescent dyes, propidium iodide (PI)/acridine orange (AO) was added to the cellular pellet. These freshly stained cells were observed under an inverted fluorescent microscope within 30 min (Banerjee and Ravishankar [2017]).
(§2) The nucleic acid-binding dyes propidium iodide (PI) and acridine orange (AO) help us to detect the dead cells and live cells under the microscope. AO permeates both dead and live cells; thus, it stains all nucleated cells to generate green fluorescence, whereas PI identifies the dead cells only and fluoresce red. The treated cancer cells were both stained with PI and AO equally, and were observed under fluorescence microscope. The results are obtained on swapping of the images to have an apparent understanding of the drug effects (Hajrezaie et al [2015]; Hajiaghaalipour et al [2015]).

Series [6] relates to MDA MB-231 cells. In words: PI/AO staining for dead/live cells, MDA MB-231. Particulars: MDA MB-231, 1 µg/mL, 24 h, Figs. 7, 9. How it is done: as §1, §2

`COC(=O)[C@H](CC(C)C)NC(=O)[C@H]1CCCN1C(=O)[C@H](CC(C)C)NC(=O)OC(C)(C)C` [Peptide P1, Boc-L-^DP-L-OMe] (HELM PEPTIDE1{[CC(C)(C)OC(=O)[*:2]].L.[dP].L.[CO[*:1]]}$$$$V2.0): in series [1] (HT-29, MTT, Fig. 1 legend), the “IC50 rank among the five peptides” value is reported as “best IC50 value”. Moreover, the “% inhibition (peptide screening)” value in series [1] (lowest concentration 1 µg/mL) turned out to be 23.22%. Moreover, the “change of NIH3T3 cells due to treatment” value in series [2] is reported as “do not show much change”. In addition, the % inhibition (commonly the percentage by which the read-out fell short of the control) in series [3] (HT 29, 1 µg/mL) was ~ 19% and 19.69%; in series [3] (HT 29, 5 µg/mL) it was 22.05%; in series [3] (HT 29, 10 µg/mL), 27.72%; in series [4] (MDA MB 231, 1 µg/mL), 29.98%; in series [4] (MDA MB 231, 5 µg/mL), 37.11%; in series [4] (MDA MB 231, 10 µg/mL), 60.69%. The “inhibition of up to (concentration not given)” value in series [4] (MDA MB-231, MTT, Fig. 5b/5d, concentration not given) is reported as “around 29%”. For the same compound, the “PI/AO fluorescent staining, observed state of the cells” value in series [5] was “a number of apoptotic cells as well and very few dead cells”; in series [6], “a number of apoptotic cells as well and very few dead cells”.

With (U^BF)4-OMe [Peptide P2], the “% inhibition (peptide screening)” value in series [1] (lowest concentration 1 µg/mL) is reported as 15.93%.

For Boc-P-A-OH [Peptide P3], in series [1] (lowest concentration 1 µg/mL), the “% inhibition (peptide screening)” value came to 9.12%.

Boc-P-U-OH [Peptide P4]: in series [1] (5 µg/mL), the “% inhibition (peptide screening)” value was “around 20%”.

On to Boc-βGly-βGly-OMe [Peptide P5], for which the “% inhibition (peptide screening)” value in series [1] (5 µg/mL) was “around 20%”.
